Paper PMC9406199, “Conformational Plasticity of Centrin 1 from Toxoplasma gondii in Binding to the Centrosomal Protein SFI1” (Biomolecules, 2022)
Where no end group is shown, it is not given here.

Experiments:
[1] = molecular target: T1, TgCEN1 (recombinant, lacking the first 21 residues) (Toxoplasma gondii, UniProt A0A125YHX7); assay: ITC titration of TgSFI1 peptides into TgCEN1; assay type: binding; conditions: for TΔS: T 298 K
T1 construct: TgCEN1 (lacking the first 21 residues) and its N-terminal (N-TgCEN1, 22–94 aa) and C-terminal (C-TgCEN1, 95–169 aa) domains; made in house
T1 sequence (A0A125YHX7 22-169): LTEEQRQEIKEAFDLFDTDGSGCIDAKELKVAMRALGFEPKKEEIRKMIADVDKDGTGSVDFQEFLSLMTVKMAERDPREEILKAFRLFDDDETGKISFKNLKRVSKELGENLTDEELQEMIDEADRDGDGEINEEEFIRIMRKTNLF
Procedure: (§1) The recombinant TgCEN1 (lacking the first 21 residues) and its N-terminal (N-TgCEN1, 22–94 aa) and C-terminal (C-TgCEN1, 95–169 aa) domains were purified as previously described. The TgSFI1 peptides were synthesized by GenScript U.S.A. Inc. (Piscataway, NJ, USA). The concentration of each peptide was determined using their predicted molar extinction coefficient at 280 nm.
(§2) Isothermal titration calorimetry (ITC) experiments were performed on a MicroCal PEAQ-ITC instrument (Malvern Ltd., Malvern, UK) at 25 °C. Protein samples and peptides were solubilized in the same buffer containing 50 mM Tris–HCl, 150 mM KCl pH 7.5 and 5 mM CaCl2 or 5 mM EGTA. All the samples were filtered and degassed before use, and the pH was carefully determined to exclude any possible pH-related effect on ITC experiments.
(§3) A typical ITC experiment was performed by titrating 200 μL of a 30–50 μM protein solution with a 1 or 1.5 μL injection of 0.3–0.5 mM peptide (total injections 39 or 26, respectively) with an initial delay of 120 s and keeping a time gap of 120 s between injections. A reference injection of peptide into buffer without centrin was performed and subtracted from each experiment. The resulting curves were fitted to calculate apparent dissociation constants Kd, enthalpy changes (ΔH), and the apparent entropy change (ΔS) using the software MicroCal ITC Origin 7 Analysis Software (MicroCal, Malvern Ltd., Malvern, UK). All measurements were repeated in triplicate using at least two different protein preparations and the error was calculated as the mean standard error of the three measurements.

[2] = molecular target: T2, C-TgCEN1 (C-terminal domain, 95–169 aa) (Toxoplasma gondii, UniProt A0A125YHX7); assay: ITC titration of TgSFI1 peptides into C-TgCEN1; assay type: binding; conditions: SEM; for Kd / n (stoichiometry of binding) / ΔH: 25 °C; for Kd / n (stoichiometry of binding): 50 mM Tris-HCl; for TΔS: T 298 K
T2 construct: C-terminal (C-TgCEN1, 95–169 aa); made in house
T2 sequence (A0A125YHX7 95-169): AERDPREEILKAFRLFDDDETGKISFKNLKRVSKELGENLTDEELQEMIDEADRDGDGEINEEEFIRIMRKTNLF
Procedure: as §1, §2, §3

[3] = molecular target: TgSFI1 R16 peptide R16 (Toxoplasma gondii) (UniProt S8F258); assay: ITC
Chain of TgSFI1 R16 peptide R16 (Toxoplasma gondii) (S8F258 whole entry, the tested form may be a part): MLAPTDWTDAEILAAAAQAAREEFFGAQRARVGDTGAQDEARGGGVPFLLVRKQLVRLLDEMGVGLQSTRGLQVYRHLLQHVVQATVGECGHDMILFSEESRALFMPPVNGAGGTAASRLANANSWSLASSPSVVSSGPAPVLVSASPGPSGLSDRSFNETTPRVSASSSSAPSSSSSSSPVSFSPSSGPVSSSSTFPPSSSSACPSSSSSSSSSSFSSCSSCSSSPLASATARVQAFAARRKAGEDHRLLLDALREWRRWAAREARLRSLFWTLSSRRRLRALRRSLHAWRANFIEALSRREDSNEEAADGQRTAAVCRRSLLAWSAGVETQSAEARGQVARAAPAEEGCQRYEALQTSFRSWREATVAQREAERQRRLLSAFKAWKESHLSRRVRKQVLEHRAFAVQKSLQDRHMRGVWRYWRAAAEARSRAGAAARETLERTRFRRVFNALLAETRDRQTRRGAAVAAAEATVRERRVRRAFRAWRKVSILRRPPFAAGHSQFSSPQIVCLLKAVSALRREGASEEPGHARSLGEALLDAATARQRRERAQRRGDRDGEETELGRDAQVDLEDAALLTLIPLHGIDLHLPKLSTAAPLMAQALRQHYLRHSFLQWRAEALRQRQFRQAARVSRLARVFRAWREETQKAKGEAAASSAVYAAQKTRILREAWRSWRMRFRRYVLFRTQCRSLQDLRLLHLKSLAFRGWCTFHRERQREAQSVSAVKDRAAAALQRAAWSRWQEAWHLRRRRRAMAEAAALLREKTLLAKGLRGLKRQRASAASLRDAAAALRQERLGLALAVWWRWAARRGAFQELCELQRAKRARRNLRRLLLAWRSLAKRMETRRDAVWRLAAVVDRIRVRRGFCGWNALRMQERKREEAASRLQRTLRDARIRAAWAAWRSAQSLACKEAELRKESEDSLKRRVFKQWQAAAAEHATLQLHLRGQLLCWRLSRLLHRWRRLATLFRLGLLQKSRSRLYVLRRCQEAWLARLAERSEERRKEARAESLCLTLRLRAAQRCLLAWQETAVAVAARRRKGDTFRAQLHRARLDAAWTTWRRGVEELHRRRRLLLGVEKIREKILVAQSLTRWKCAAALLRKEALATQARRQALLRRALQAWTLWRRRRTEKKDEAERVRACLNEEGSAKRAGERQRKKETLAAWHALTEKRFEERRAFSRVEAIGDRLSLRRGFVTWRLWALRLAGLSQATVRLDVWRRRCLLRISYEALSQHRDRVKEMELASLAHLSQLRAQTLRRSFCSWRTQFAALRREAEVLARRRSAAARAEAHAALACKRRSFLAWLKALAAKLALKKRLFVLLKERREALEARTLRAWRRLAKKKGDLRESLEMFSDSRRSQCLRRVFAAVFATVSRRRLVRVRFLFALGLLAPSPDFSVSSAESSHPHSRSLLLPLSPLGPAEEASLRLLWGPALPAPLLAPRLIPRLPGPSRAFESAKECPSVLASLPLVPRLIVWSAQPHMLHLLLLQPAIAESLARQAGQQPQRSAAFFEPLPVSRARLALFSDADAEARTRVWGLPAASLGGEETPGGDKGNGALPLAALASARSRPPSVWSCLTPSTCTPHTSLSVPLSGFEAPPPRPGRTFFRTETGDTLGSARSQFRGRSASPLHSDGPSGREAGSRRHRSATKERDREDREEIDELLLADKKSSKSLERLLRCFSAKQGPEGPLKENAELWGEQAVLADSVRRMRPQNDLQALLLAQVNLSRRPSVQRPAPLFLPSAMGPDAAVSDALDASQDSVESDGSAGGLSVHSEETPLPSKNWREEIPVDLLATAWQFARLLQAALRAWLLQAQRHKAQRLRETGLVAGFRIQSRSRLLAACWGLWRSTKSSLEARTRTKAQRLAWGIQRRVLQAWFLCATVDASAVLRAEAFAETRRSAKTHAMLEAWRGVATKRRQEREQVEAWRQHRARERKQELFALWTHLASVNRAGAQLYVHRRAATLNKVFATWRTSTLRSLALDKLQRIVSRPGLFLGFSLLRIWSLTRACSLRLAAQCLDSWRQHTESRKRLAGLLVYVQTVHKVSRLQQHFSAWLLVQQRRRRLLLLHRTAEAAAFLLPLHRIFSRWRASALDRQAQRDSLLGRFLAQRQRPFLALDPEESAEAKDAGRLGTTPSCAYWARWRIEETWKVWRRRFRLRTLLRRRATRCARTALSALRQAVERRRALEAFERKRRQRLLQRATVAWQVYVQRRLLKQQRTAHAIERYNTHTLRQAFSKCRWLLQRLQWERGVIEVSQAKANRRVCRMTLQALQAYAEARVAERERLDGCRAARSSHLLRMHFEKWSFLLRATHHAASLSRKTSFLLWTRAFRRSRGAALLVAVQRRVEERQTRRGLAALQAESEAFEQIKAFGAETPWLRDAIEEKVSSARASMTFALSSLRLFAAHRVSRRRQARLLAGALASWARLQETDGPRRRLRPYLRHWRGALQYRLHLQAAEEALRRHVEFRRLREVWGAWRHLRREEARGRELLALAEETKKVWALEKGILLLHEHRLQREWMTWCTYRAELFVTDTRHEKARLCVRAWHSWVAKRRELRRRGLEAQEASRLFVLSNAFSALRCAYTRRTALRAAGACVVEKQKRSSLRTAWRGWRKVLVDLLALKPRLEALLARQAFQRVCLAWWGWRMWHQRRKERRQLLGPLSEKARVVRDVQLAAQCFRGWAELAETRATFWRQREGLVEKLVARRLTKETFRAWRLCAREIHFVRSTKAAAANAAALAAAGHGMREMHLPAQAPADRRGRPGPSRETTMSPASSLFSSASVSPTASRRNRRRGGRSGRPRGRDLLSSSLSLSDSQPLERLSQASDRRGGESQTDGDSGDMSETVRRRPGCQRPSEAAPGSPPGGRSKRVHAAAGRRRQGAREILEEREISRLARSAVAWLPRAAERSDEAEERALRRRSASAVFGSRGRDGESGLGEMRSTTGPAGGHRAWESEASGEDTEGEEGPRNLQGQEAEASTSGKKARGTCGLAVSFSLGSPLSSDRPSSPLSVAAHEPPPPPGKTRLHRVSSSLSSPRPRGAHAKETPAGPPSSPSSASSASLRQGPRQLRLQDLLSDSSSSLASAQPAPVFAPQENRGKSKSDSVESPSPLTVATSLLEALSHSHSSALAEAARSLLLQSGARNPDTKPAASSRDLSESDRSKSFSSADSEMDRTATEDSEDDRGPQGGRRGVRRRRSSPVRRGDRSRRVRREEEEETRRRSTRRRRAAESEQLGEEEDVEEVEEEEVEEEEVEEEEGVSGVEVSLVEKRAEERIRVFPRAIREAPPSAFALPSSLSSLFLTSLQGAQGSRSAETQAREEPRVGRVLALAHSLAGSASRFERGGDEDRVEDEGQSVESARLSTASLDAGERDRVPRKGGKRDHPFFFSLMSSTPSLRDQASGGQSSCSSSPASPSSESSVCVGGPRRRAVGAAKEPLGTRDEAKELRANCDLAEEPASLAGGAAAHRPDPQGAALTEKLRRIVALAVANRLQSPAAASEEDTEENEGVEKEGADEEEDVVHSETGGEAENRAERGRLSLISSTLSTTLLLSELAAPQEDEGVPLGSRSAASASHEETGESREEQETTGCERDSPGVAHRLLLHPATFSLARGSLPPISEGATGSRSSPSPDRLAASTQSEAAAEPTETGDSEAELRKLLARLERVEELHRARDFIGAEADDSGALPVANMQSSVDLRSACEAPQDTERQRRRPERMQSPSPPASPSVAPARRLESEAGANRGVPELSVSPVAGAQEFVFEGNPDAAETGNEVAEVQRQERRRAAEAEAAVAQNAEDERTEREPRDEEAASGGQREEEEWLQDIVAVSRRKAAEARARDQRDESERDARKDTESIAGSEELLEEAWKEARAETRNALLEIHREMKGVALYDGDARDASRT

[4] = molecular target: T3, N-TgCEN1 (N-terminal domain, 22–94 aa) (Toxoplasma gondii, UniProt A0A125YHX7); assay: ITC titration of TgSFI1 peptides into N-TgCEN1; assay type: binding; conditions: SEM
T3 construct: N-terminal (N-TgCEN1, 22–94 aa); made in house
T3 sequence (A0A125YHX7 22-94): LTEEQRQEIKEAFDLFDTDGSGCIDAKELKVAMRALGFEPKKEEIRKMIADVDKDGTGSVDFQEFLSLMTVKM
Procedure: as §1, §2, §3

[5] = 25 °C, 50 mM Tris-HCl, 150 mM KCl pH 7.5, 5 mM CaCl2, single binding site, mean ± SE of triplicate, SEM
[6] = Ca2+-bound TgCEN1, single exothermic event, order of magnitude in text
[7] = 150 mM KCl pH 7.5, 5 mM CaCl2, mean ± SE of triplicate
[8] = 25 °C, 50 mM Tris-HCl, 150 mM KCl pH 7.5, 5 mM EGTA, mean ± SE of triplicate, dash = no binding observed, SEM
[9] = 150 mM KCl pH 7.5, 5 mM EGTA, mean ± SE of triplicate, dash = no binding observed
[10] = 25 °C, 50 mM Tris-HCl, 150 mM KCl pH 7.5, 5 mM CaCl2, first site (n1) of two-step binding, mean ± SE of triplicate, SEM
[11] = 25 °C, 50 mM Tris-HCl, 150 mM KCl pH 7.5, 5 mM CaCl2, second site (n2) of two-step binding, mean ± SE of triplicate, SEM
[12] = pH 7.5, 5 mM CaCl2, mean ± SE of triplicate
[13] = pH 7.5, 5 mM EGTA, mean ± SE of triplicate

Chain of TgCEN1 (A0A125YHX7 whole entry): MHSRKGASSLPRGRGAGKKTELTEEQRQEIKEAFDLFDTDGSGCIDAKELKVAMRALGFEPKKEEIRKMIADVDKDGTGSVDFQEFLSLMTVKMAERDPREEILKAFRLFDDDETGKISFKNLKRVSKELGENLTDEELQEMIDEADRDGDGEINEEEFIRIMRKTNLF

## AEAAAFLLPLHRIFSRWR [R24]
[1]; [5]
  Kd: 3400 ± 600 nM
[1]; [6]
  Kd: ~1000 nM
[2]; [7]
  Kd: 2600 ± 300 nM

## AEATVRERRVRRAFRAWR [R5]
[1]; [5]
  Kd: 500 ± 100 nM
[1]; [8]
  Kd: 36900 ± 6600 nM
[2]; [7]
  Kd: 900 ± 100 nM
[2]; [9]
  Kd: 47800 ± 4900 nM

## LQRTLRDARIRAAWAAWR [R12]
[1]; [5]
  Kd: 500 ± 100 nM
[1]; [8]
  Kd: 29800 ± 3400 nM
[2]; [7]
  Kd: 400 ± 100 nM
[2]; [9]
  Kd: 69900 ± 7000 nM

## TgCEN1 (from UniProt A0A125YHX7)
[3]
  Kd: 9 nM

## RVEAIGDRLSLRRGFVTWRL [R17]
[1]; [5]
  Kd: 800 ± 200 nM
[2]; [7]
  Kd: 2700 ± 100 nM

## VVEKQKRSSLRTAWRGWR [R31]
[1]; [5]
  Kd: 2900 ± 100 nM
[1]; [6]
  Kd: ~1000 nM
[2]; [7]
  Kd: 1900 ± 100 nM

## LQRAKRARRNLRRLLLAWRS [R10]
[4]; 25 °C, 50 mM Tris-HCl, 150 mM KCl pH 7.5, 5 mM CaCl2, mean ± SE of triplicate
  n (stoichiometry of binding): 0.7 ± 0.1
[4]; 25 °C, pH 7.5, 5 mM CaCl2, mean ± SE of triplicate
  ΔH: -12.6 ± 0.9 kcal/mol
[4]; T 298 K, pH 7.5, 5 mM CaCl2, mean ± SE of triplicate
  TΔS: -4.4 ± 1.0 kcal/mol
[1]; [10]
  n (stoichiometry of binding), n1: n1 = 0.7 ± 0.1
[1]; [11]
  n (stoichiometry of binding), n2: n2 = 0.9 ± 0.1
[1]; 25 °C, 50 mM Tris-HCl, 150 mM KCl pH 7.5, 5 mM EGTA, mean ± SE of triplicate, SEM
  n (stoichiometry of binding): 0.8 ± 0.1
[1]; 25 °C, pH 7.5, 5 mM CaCl2, first site (n1), mean ± SE of triplicate, SEM
  ΔH: -19.1 ± 0.4 kcal/mol
[1]; 25 °C, pH 7.5, 5 mM CaCl2, second site (n2), mean ± SE of triplicate, SEM
  ΔH: -12.1 ± 0.3 kcal/mol
[1]; 25 °C, pH 7.5, 5 mM EGTA, mean ± SE of triplicate, SEM
  ΔH: -24.7 ± 0.4 kcal/mol
[1]; pH 7.5, 5 mM CaCl2, first site (n1), mean ± SE of triplicate, SEM
  TΔS: -6.3 ± 0.4 kcal/mol
[1]; pH 7.5, 5 mM CaCl2, second site (n2), mean ± SE of triplicate, SEM
  TΔS: -4.4 ± 0.3 kcal/mol
[1]; pH 7.5, 5 mM EGTA, mean ± SE of triplicate, SEM
  TΔS: -16.4 ± 0.4 kcal/mol
[2]; [7]
  n (stoichiometry of binding): 0.7 ± 0.1
[2]; 150 mM KCl pH 7.5, 5 mM EGTA, mean ± SE of triplicate
  n (stoichiometry of binding): 0.7 ± 0.1
[2]; [12]
  ΔH: -15.8 ± 0.1 kcal/mol
  TΔS: -5.5 ± 0.5 kcal/mol
[2]; [13]
  ΔH: -19.3 ± 0.1 kcal/mol
  TΔS: -11.5 ± 0.7 kcal/mol

## LATQARRQALLRRALQAWTL [R16]
[4]; 25 °C, 50 mM Tris-HCl, 150 mM KCl pH 7.5, 5 mM CaCl2, mean ± SE of triplicate, dash = no binding observed
  Kd: 400 ± 100 nM
[1]; [10]
  Kd: 9 ± 1 nM
[1]; [11]
  Kd: 500 ± 100 nM
[1]; [8]
  Kd: 3400 ± 300 nM
[2]; [7]
  Kd: 6 ± 1 nM
[2]; [9]
  Kd: 9100 ± 800 nM
